The first series has as its target Glycine receptor (Rattus norvegicus, UniProt P22771+P24524+P07727+P20781). The series is classed as cell membranes, Wistar, Spinal cord, Membrane. Also: in other assays of this panel Not Active means under 50% inhibition at 10 µM.
Conditions: not given
`NC(=O)N1c2ccccc2CCc2ccccc21`: the IC50 result was “Not Active”.

Regarding `CC(C)C(Br)C(=O)NC(N)=O` (configuration not stated) [BROMISOVALUM], the IC50 result was “Not Active”.

`C[C@]12CCC(=O)C=C1CC[C@@H]1[C@@H]2CC[C@@]2(C)[C@H]1CC[C@]2(C)O` [METHYLTESTOSTERONE]: the IC50 result is recorded as “Not Active”.

With `O=C1CC[C@@H](N2C(=O)c3ccccc3C2=O)C(=O)N1`, the IC50 result is on record as “Not Active”.

Turning to `Cc1c(O)c(=O)ccn1C` [DEFERIPRONE], the IC50 entry is on record as “Not Active”.

On to `CCOc1ccc(NC(C)=O)cc1` [PHENACETIN], for which the IC50 entry is “Not Active”.

On to `NC1=NC(=O)C(c2ccccc2)O1` (configuration not stated) [PEMOLINE], for which the IC50 result is “Not Active”.

On to `CC1(C)S[C@@H]2[C@H](NC(=O)Cc3ccccc3)C(=O)N2[C@H]1C(=O)O` [PENICILLIN G], for which the IC50 entry is “Not Active”.

A further series has as its target T1, Cytochrome P450 2A6 (Homo sapiens, UniProt P11509). Also: in other assays of this panel Not Active means under 50% inhibition at 10 µM.
T1 sequence (P11509 whole entry): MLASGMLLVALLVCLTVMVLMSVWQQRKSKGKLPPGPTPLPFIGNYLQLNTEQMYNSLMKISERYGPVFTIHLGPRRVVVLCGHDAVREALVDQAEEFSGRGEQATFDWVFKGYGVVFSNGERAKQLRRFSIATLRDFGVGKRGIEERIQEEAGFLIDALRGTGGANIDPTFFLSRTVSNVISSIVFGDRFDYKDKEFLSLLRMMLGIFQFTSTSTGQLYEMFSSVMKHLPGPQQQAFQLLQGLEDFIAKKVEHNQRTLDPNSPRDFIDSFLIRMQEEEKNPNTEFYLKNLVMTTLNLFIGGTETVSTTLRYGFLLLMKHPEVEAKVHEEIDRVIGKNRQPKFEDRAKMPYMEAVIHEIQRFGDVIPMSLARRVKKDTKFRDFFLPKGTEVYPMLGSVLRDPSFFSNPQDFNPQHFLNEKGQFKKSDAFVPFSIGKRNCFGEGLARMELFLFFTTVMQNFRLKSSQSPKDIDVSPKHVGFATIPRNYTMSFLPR
The following applies: bti-tn-5b1-4.
Consider `NC(=O)N1c2ccccc2CCc2ccccc21`, for which the IC50 entry was “Not Active” and the Ki entry is on record as “Not Active”.

In the case of `CC(C)C(Br)C(=O)NC(N)=O` (configuration not stated) [BROMISOVALUM], the IC50 entry is “Not Active” and the Ki result was “Not Active”.

`C[C@]12CCC(=O)C=C1CC[C@@H]1[C@@H]2CC[C@@]2(C)[C@H]1CC[C@]2(C)O` [METHYLTESTOSTERONE]: the IC50 entry was “Not Active” and the Ki result is “Not Active”.

`O=C1CC[C@@H](N2C(=O)c3ccccc3C2=O)C(=O)N1`: the IC50 entry is given as “Not Active” and the Ki result was “Not Active”.

In the case of `Cc1c(O)c(=O)ccn1C` [DEFERIPRONE], the IC50 entry was “Not Active” and the Ki result is “Not Active”.

Take `CCOc1ccc(NC(C)=O)cc1` [PHENACETIN]: the IC50 entry is listed as “Not Active” and the Ki result is “Not Active”.

With `NC1=NC(=O)C(c2ccccc2)O1` (configuration not stated) [PEMOLINE], the IC50 entry is “Not Active” and the Ki entry is listed as “Not Active”.

Tested on in another series: not listed separately
The experiment in a line: DRUGMATRIX: GABAA, Chloride Channel, TBOB radioligand binding (ligand: [3H] TBOB). The series is classed as cell membranes, Rattus norvegicus, Wistar, Cerebral cortex, Membrane. The settings on record: Not Active = under 50% inhibition at 10 µM.
Regarding `NC(=O)N1c2ccccc2CCc2ccccc21`, the IC50 result is reported as “Not Active” and the Ki result is “Not Active”.

With `CC(C)C(Br)C(=O)NC(N)=O` (configuration not stated) [BROMISOVALUM], the IC50 result is “Not Active” and the Ki entry is “Not Active”.

For the compound `C[C@]12CCC(=O)C=C1CC[C@@H]1[C@@H]2CC[C@@]2(C)[C@H]1CC[C@]2(C)O` [METHYLTESTOSTERONE], the IC50 result was “Not Active” and the Ki result is reported as “Not Active”.

For `O=C1CC[C@@H](N2C(=O)c3ccccc3C2=O)C(=O)N1`, the IC50 entry was “Not Active” and the Ki result is on record as “Not Active”.

On to `Cc1c(O)c(=O)ccn1C` [DEFERIPRONE], for which the IC50 result is recorded as “Not Active” and the Ki result is “Not Active”.

As to `CCOc1ccc(NC(C)=O)cc1` [PHENACETIN], the IC50 entry is reported as “Not Active” and the Ki result is given as “Not Active”.

In the case of `NC1=NC(=O)C(c2ccccc2)O1` (configuration not stated) [PEMOLINE], the IC50 result was “Not Active” and the Ki entry is “Not Active”.

Turning to `CC1(C)S[C@@H]2[C@H](NC(=O)Cc3ccccc3)C(=O)N2[C@H]1C(=O)O` [PENICILLIN G], the IC50 result was “Not Active” and the Ki result is reported as “Not Active”.

The target in another series is Mu-type opioid receptor (Homo sapiens, UniProt P35372). Put plainly: DRUGMATRIX: Opiate mu (OP3, MOP) radioligand binding (ligand: [3H] Diprenorphine). Type of series: cell membranes, CHO-K1, Membrane. The settings on record: cho-k1; Not Active = under 50% inhibition at 10 µM.
Mu-type opioid receptor, sequence (P35372 whole entry): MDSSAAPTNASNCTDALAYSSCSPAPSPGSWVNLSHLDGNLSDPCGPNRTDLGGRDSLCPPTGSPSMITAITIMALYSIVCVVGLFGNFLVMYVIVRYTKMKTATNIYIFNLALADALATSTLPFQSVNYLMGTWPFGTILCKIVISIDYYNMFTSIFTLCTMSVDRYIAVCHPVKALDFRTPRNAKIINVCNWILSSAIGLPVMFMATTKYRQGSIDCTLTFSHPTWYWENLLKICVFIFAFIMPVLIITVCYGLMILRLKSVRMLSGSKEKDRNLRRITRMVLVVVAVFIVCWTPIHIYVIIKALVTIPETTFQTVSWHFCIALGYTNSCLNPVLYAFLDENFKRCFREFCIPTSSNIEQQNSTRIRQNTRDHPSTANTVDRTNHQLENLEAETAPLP
`NC(=O)N1c2ccccc2CCc2ccccc21`: the IC50 entry is recorded as “Not Active”.

`CC(C)C(Br)C(=O)NC(N)=O` (configuration not stated) [BROMISOVALUM]: the IC50 result is “Not Active”.

For `C[C@]12CCC(=O)C=C1CC[C@@H]1[C@@H]2CC[C@@]2(C)[C@H]1CC[C@]2(C)O` [METHYLTESTOSTERONE], the IC50 entry is given as “Not Active”.

As to `O=C1CC[C@@H](N2C(=O)c3ccccc3C2=O)C(=O)N1`, the IC50 entry is “Not Active”.

As to `Cc1c(O)c(=O)ccn1C` [DEFERIPRONE], the IC50 result is reported as “Not Active”.

Regarding `CCOc1ccc(NC(C)=O)cc1` [PHENACETIN], the IC50 entry is given as “Not Active”.

For the compound `NC1=NC(=O)C(c2ccccc2)O1` (configuration not stated) [PEMOLINE], the IC50 result is recorded as “Not Active”.

In the case of `CC1(C)S[C@@H]2[C@H](NC(=O)Cc3ccccc3)C(=O)N2[C@H]1C(=O)O` [PENICILLIN G], the IC50 entry was “Not Active”.

Tested on in a further series: not listed separately
Put plainly: DRUGMATRIX: Potassium Channel [KATP] radioligand binding (ligand: [3H] Glyburide). The series is classed as cell membranes, Membrane. The following applies: hit-t15; Not Active = under 50% inhibition at 10 µM.
Take `NC(=O)N1c2ccccc2CCc2ccccc21`: the IC50 result is on record as “Not Active” and the Ki entry was “Not Active”.

Turning to `CC(C)C(Br)C(=O)NC(N)=O` (configuration not stated) [BROMISOVALUM], the IC50 entry is listed as “Not Active” and the Ki result is on record as “Not Active”.

With `C[C@]12CCC(=O)C=C1CC[C@@H]1[C@@H]2CC[C@@]2(C)[C@H]1CC[C@]2(C)O` [METHYLTESTOSTERONE], the IC50 entry is “Not Active” and the Ki result is recorded as “Not Active”.

Turning to `O=C1CC[C@@H](N2C(=O)c3ccccc3C2=O)C(=O)N1`, the IC50 result is on record as “Not Active” and the Ki entry was “Not Active”.

As for `Cc1c(O)c(=O)ccn1C` [DEFERIPRONE], the IC50 entry was “Not Active” and the Ki entry is given as “Not Active”.

Consider `CCOc1ccc(NC(C)=O)cc1` [PHENACETIN], for which the IC50 result was “Not Active” and the Ki entry was “Not Active”.

In the case of `NC1=NC(=O)C(c2ccccc2)O1` (configuration not stated) [PEMOLINE], the IC50 result is “Not Active” and the Ki entry is listed as “Not Active”.

As for `CC1(C)S[C@@H]2[C@H](NC(=O)Cc3ccccc3)C(=O)N2[C@H]1C(=O)O` [PENICILLIN G], the IC50 entry is on record as “Not Active” and the Ki result was “Not Active”.

The target in the next series is T2, Alpha-2C adrenergic receptor (Homo sapiens, UniProt P18825).
T2 sequence (P18825 whole entry): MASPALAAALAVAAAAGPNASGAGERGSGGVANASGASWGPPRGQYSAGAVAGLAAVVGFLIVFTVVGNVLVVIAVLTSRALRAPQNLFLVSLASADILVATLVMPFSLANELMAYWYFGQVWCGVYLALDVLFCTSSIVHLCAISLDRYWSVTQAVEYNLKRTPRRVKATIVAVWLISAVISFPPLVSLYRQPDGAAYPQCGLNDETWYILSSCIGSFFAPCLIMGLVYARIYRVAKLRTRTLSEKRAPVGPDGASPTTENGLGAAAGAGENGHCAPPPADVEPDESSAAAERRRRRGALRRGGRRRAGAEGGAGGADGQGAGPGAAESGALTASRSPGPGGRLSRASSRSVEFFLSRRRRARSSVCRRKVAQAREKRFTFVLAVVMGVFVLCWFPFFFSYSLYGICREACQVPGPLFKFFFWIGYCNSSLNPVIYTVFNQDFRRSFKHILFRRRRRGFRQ
Put plainly: DRUGMATRIX: Adrenergic Alpha-2C radioligand binding (ligand: [3H] MK-912). The series is classed as cell membranes, Sf9, Membrane. The following applies: sf9.
Regarding `NC(=O)N1c2ccccc2CCc2ccccc21`, the IC50 result is on record as “Not Active”.

In the case of `CC(C)C(Br)C(=O)NC(N)=O` (configuration not stated) [BROMISOVALUM], the IC50 entry is “Not Active”.

On to `C[C@]12CCC(=O)C=C1CC[C@@H]1[C@@H]2CC[C@@]2(C)[C@H]1CC[C@]2(C)O` [METHYLTESTOSTERONE], for which the IC50 entry is “Not Active”.

Regarding `O=C1CC[C@@H](N2C(=O)c3ccccc3C2=O)C(=O)N1`, the IC50 result was “Not Active”.

Turning to `Cc1c(O)c(=O)ccn1C` [DEFERIPRONE], the IC50 result is “Not Active”.

Consider `CCOc1ccc(NC(C)=O)cc1` [PHENACETIN], for which the IC50 result is “Not Active”.

With `NC1=NC(=O)C(c2ccccc2)O1` (configuration not stated) [PEMOLINE], the IC50 result is reported as “Not Active”.

As for `CC1(C)S[C@@H]2[C@H](NC(=O)Cc3ccccc3)C(=O)N2[C@H]1C(=O)O` [PENICILLIN G], the IC50 result was “Not Active”.

The target of another series is Protein phosphatase 3 catalytic subunit alpha (Homo sapiens, UniProt Q08209). On the set-up: species or system Escherichia coli.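 Also: inhibition of calcineurin (PP2B) enzyme activity, measured with DiFMUP as the substrate; in other assays of this panel Not Active means under 50% inhibition at 10 µM.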
Conditions: not given
`NC(=O)N1c2ccccc2CCc2ccccc21`: the IC50 entry is recorded as “Not Active”.

With `CC(C)C(Br)C(=O)NC(N)=O` (configuration not stated) [BROMISOVALUM], the IC50 entry is reported as “Not Active”.

For the compound `C[C@]12CCC(=O)C=C1CC[C@@H]1[C@@H]2CC[C@@]2(C)[C@H]1CC[C@]2(C)O` [METHYLTESTOSTERONE], the IC50 result is “Not Active”.

With `O=C1CC[C@@H](N2C(=O)c3ccccc3C2=O)C(=O)N1`, the IC50 result is “Not Active”.

As for `Cc1c(O)c(=O)ccn1C` [DEFERIPRONE], the IC50 entry is listed as “Not Active”.

As for `CCOc1ccc(NC(C)=O)cc1` [PHENACETIN], the IC50 entry is reported as “Not Active”.

As for `NC1=NC(=O)C(c2ccccc2)O1` (configuration not stated) [PEMOLINE], the IC50 result is given as “Not Active”.

On to `CC1(C)S[C@@H]2[C@H](NC(=O)Cc3ccccc3)C(=O)N2[C@H]1C(=O)O` [PENICILLIN G], for which the IC50 entry is “Not Active”.

The target in the next series is Cytochrome P450 2E1 (Homo sapiens, UniProt P05181). The following applies: bti-tn-5b1-4. Also: in other assays of this panel Not Active means under 50% inhibition at 10 µM.
Cytochrome P450 2E1, sequence (P05181 whole entry): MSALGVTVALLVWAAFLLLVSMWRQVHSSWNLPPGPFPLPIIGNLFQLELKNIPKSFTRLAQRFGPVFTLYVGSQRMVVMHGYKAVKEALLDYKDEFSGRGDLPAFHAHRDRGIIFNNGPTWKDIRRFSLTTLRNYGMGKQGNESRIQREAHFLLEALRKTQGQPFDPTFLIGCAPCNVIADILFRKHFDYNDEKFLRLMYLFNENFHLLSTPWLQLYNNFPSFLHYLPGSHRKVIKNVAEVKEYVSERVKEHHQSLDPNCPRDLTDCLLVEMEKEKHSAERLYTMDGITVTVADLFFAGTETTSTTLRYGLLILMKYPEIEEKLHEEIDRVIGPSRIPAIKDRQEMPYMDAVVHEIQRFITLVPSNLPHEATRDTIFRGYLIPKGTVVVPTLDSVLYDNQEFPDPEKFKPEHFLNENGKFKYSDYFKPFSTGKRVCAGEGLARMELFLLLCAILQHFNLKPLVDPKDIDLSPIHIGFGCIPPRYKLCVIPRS
Take `NC(=O)N1c2ccccc2CCc2ccccc21`: the IC50 result is given as “Not Active” and the Ki entry was “Not Active”.

On to `CC(C)C(Br)C(=O)NC(N)=O` (configuration not stated) [BROMISOVALUM], for which the IC50 result is “Not Active” and the Ki entry is reported as “Not Active”.

Regarding `C[C@]12CCC(=O)C=C1CC[C@@H]1[C@@H]2CC[C@@]2(C)[C@H]1CC[C@]2(C)O` [METHYLTESTOSTERONE], the IC50 entry is listed as “Not Active” and the Ki entry is “Not Active”.

Turning to `O=C1CC[C@@H](N2C(=O)c3ccccc3C2=O)C(=O)N1`, the IC50 result is “Not Active” and the Ki result is recorded as “Not Active”.

Regarding `Cc1c(O)c(=O)ccn1C` [DEFERIPRONE], the IC50 entry was “Not Active” and the Ki entry is recorded as “Not Active”.

As for `CCOc1ccc(NC(C)=O)cc1` [PHENACETIN], the IC50 result is recorded as “Not Active” and the Ki entry is recorded as “Not Active”.

Consider `NC1=NC(=O)C(c2ccccc2)O1` (configuration not stated) [PEMOLINE], for which the IC50 result is “Not Active” and the Ki entry is listed as “Not Active”.

For the origin of these results see ChEMBL document CHEMBL1909046, “DrugMatrix in vitro pharmacology data”.
